Assay results taken from publication PMC6677016, “Biochemical and structural explorations of α-hydroxyacid oxidases reveal a four-electron oxidative decarboxylation reaction” (Acta Crystallographica. Section D, Structural Biology, 2019).
Substitutions are numbered along the chain they refer to. Names may count otherwise.

How the values were obtained:
[1] = target: T1, p-Hydroxymandelate oxidase (Hmo) Y128F mutant (Amycolatopsis orientalis, UniProt O52792, Y128F); experiment: crystal structure ([…] Å); format: binding
T1 construct: N-terminally His6-tagged protein
T1 sequence (O52792 1-357 Y128F): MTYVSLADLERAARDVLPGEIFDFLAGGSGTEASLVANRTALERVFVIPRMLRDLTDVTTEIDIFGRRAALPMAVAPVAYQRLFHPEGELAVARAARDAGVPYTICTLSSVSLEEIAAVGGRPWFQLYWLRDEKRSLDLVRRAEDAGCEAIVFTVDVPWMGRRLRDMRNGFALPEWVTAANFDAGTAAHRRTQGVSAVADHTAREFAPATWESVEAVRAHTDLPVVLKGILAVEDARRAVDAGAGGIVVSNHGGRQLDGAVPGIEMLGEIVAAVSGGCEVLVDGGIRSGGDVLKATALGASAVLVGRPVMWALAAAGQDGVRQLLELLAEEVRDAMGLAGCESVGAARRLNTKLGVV

[2] = target: T2, p-Hydroxymandelate oxidase (Hmo) (Amycolatopsis orientalis, UniProt O52792); experiment: crystal structure ([…] Å); format: binding
T2 construct: N-terminally His6-tagged protein

[3] = target: T1, p-Hydroxymandelate oxidase (Hmo) Y128F mutant; experiment: crystal structure ([…] Å); format: binding; remark: listed apart in the source
[4] = target: T1, p-Hydroxymandelate oxidase (Hmo) Y128F mutant; experiment: crystal structure ([…] Å) and ITC; format: binding
[5] = target: T2, p-Hydroxymandelate oxidase (Hmo); experiment: crystal structure ([…] Å) and ITC; format: binding
[6] = target: T2, p-Hydroxymandelate oxidase (Hmo); experiment: crystal structure ([…] Å); format: binding; remark: listed apart in the source
[7] = target: T2, p-Hydroxymandelate oxidase (Hmo); experiment: crystal structure ([…] Å); format: binding; remark: listed apart in the source
[8] = target: T1, p-Hydroxymandelate oxidase (Hmo) Y128F mutant; experiment: crystal structure ([…] Å); format: binding; remark: listed apart in the source
purified protein = substrate: O=C(O)[C@@H](O)c1ccccc1; experiment: purified protein; details: FMN anchored by Tyr128, Arg163, His252 and Arg255; α-H points towards N5 of the isoalloxazine ring
[9] = target: the molecule itself; experiment: crystal structure; hanging-drop vapor diffusion at 20°C, 35% Tascimate, 0.1 M bis-Tris propane pH 7.0; space group I422, one chain in the asymmetric unit, dimer by a crystallographic twofold axis

Q: `O=C(O)C(=O)Cc1ccccc1` [PPY, phenylpyruvate] was tested. Which “crystal structure (1.45 Å)” value [1] did it give?
A: The value was “The Y128F mutant liganded with phenylpyruvate, an oxidized product, when soaked with phenyllactate”.

Q: With `O=C(O)c1ccccc1` [BA, benzoate] as the molecule, how does the “crystal structure (1.40 Å)” value [2] read?
A: The value was “complex with benzoate, 5zzs”.

Q: `O=C(O)[C@H](O)c1ccccc1` [RMA, (R)-mandelate] was tested. Which “crystal structure (1.50 Å)” value [3] did it give?
A: The value was “When the Y128F mutant is bound by (R)-mandelate, the structural conformation is similar to that of (S)-mandelate”.

Q: What does the source list for `O=C(O)C(=O)c1ccccc1` [BF, benzoylformate]?
A: Kd [4]: 1400 µM; Kd [5]: 1900 µM

Q: Which “crystal structure (1.32 Å)” value [6] does the source give for `O=C(O)[C@@H](O)c1ccc(O)cc1` [4HSMA, 4-hydroxy-(S)-mandelate] here?
A: Its value is “complex with 4-hydroxy-(S)-mandelate, 5zzq”.

Q: Which “crystal structure (1.60 Å)” value [7] does the source give for `C[C@H](C(=O)O)c1ccccc1` [SPPA, (S)-2-phenylpropionate] here?
A: The value was “(S)-2-phenylpropionate (inhibitor) all adopt a ‘V’ conformation with the carboxyl group orthogonal to the plane of the phenyl ring”.

Q: And the “crystal structure (1.65 Å)” value [8]?
A: The value was “complex with 2-phenylpropanoate, 6a0d”.

B1: p-Hydroxymandelate oxidase (Hmo) from Amycolatopsis orientalis, wild type (enzyme)
chain: T1 sequence (O52792 1-357 Y128F)
notes: p-hydroxymandelate oxidase (Hmo, orf22), amplified from Amycolatopsis orientalis genomic DNA and subcloned into pET-28a(+) (NdeI/XhoI); one chain in the asymmetric unit, the dimer made by a crystallographic twofold axis; also called (S)-p-hydroxymandelate oxidase; WT Hmo; source: E. coli BL21(DE3), purified (Ni-NTA, size-exclusion chromatography)
Q: Which results are given for B1?
A: Km (purified protein): 160 µM; stoichiometry N [9]: 2

B2: p-Hydroxymandelate oxidase (Hmo) Y128F mutant (enzyme, Amycolatopsis orientalis)
chain: T1 sequence (O52792 1-357 Y128F) with Y128F
notes: p-hydroxymandelate oxidase (Hmo, orf22) of Amycolatopsis orientalis in pET-28a(+), point mutant made by QuikChange on the wild-type hmo gene; Purified by the same protocol as wild-type Hmo; source: E. coli BL21(DE3), purified (Ni-NTA, size-exclusion chromatography)
Q: Which “stoichiometry N” value [9] does the source give for B2 here?
A: Its value is 2.
